Activity calls are given as the source filed them. The rule behind the calls is not given here.
Tested on: CCRIS mutagenicity, Ames/micronucleus/aberration tests
Experiment: CCRIS mutagenicity studies
[1] = Test System: AMES SALMONELLA TYPHIMURIUM, Strain/Indicator: TA98, Metabolic Activation: NONE, Method: PREINCUBATION

For `O=c1oc2cc([N+](=O)[O-])ccc2c2ccccc12`, the mutagenic call (Test System: AMES SALMONELLA TYPHIMURIUM, Strain/Indicator: TA98(1,8-DNP6), Metabolic Activation: NONE, Method: MICROSUSPENSION) was “active; positive”, the mutagenic call (Test System: AMES SALMONELLA TYPHIMURIUM, Strain/Indicator: TA98(1,8-DNP6), Metabolic Activation: NONE, Method: PREINCUBATION) was “active; positive” and the mutagenic call (Test System: AMES SALMONELLA TYPHIMURIUM, Strain/Indicator: TA98(1,8-DNP6), Metabolic Activation: NONE, Method: STANDARD PLATE) was “active; positive”. The mutagenic call (Test System: AMES SALMONELLA TYPHIMURIUM, Strain/Indicator: TA98(NR), Metabolic Activation: NONE, Method: MICROSUSPENSION) was “active; positive”, the mutagenic call (Test System: AMES SALMONELLA TYPHIMURIUM, Strain/Indicator: TA98(NR), Metabolic Activation: NONE, Method: PREINCUBATION) was “active; positive” and the mutagenic call (Test System: AMES SALMONELLA TYPHIMURIUM, Strain/Indicator: TA98(NR), Metabolic Activation: NONE, Method: STANDARD PLATE) was “active; positive”. For the same molecule, the mutagenic call (Test System: AMES SALMONELLA TYPHIMURIUM, Strain/Indicator: TA98(NR), Metabolic Activation: RAT LIVER S-9 (15%), Method: PREINCUBATION) was “active; positive”, the mutagenic call (Test System: AMES SALMONELLA TYPHIMURIUM, Strain/Indicator: TA98(NR), Metabolic Activation: RAT LIVER S-9, 3-METHYLCHOLANTHRENE, Method: PREINCUBATION) was “active; positive” and the mutagenic call (Test System: AMES SALMONELLA TYPHIMURIUM, Strain/Indicator: TA98(NR), Metabolic Activation: RAT LIVER S-9, BETA-NAPHTHOFLAVONE (15%), Method: PREINCUBATION) was “active; positive”. The mutagenic call (Test System: AMES SALMONELLA TYPHIMURIUM, Strain/Indicator: TA98(NR), Metabolic Activation: RAT LIVER S-9, PCB (15%), Method: PREINCUBATION) was “active; positive”, the mutagenic call (Test System: AMES SALMONELLA TYPHIMURIUM, Strain/Indicator: TA98(NR), Metabolic Activation: RAT LIVER S-9, PHENOBARBITAL (15%), Method: PREINCUBATION) was “active; positive” and the mutagenic call (Test System: AMES SALMONELLA TYPHIMURIUM, Strain/Indicator: TA98(NR), Metabolic Activation: RAT, LIVER, S-9, AROCLOR 1254, Method: STANDARD PLATE) was “active; positive”. For the same molecule, the mutagenic call (Test System: AMES SALMONELLA TYPHIMURIUM, Strain/Indicator: TA98, Metabolic Activation: NONE, Method: MICROSUSPENSION) was “active; positive”, the mutagenic call [1] was “active; positive” and the mutagenic call (Test System: AMES SALMONELLA TYPHIMURIUM, Strain/Indicator: TA98, Metabolic Activation: NONE, Method: STANDARD PLATE) was “active; positive”. The mutagenic call (Test System: AMES SALMONELLA TYPHIMURIUM, Strain/Indicator: TA98, Metabolic Activation: RAT, LIVER, S-9, AROCLOR 1254, Method: MICROSUSPENSION) was “active; positive”, the mutagenic call (Test System: AMES SALMONELLA TYPHIMURIUM, Strain/Indicator: TA98, Metabolic Activation: RAT, LIVER, S-9, AROCLOR 1254, Method: STANDARD PLATE) was “active; positive” and the mutagenic call (Test System: AMES SALMONELLA TYPHIMURIUM, Strain/Indicator: TA100, Metabolic Activation: NONE, Method: MICROSUSPENSION) was “active; positive”. For the same molecule, the mutagenic call (Test System: AMES SALMONELLA TYPHIMURIUM, Strain/Indicator: TA100, Metabolic Activation: NONE, Method: PREINCUBATION) was “active; positive”, the mutagenic call (Test System: AMES SALMONELLA TYPHIMURIUM, Strain/Indicator: TA100, Metabolic Activation: NONE, Method: STANDARD PLATE) was “active; positive” and the mutagenic call (Test System: AMES SALMONELLA TYPHIMURIUM, Strain/Indicator: TA100, Metabolic Activation: RAT LIVER S-9, 3-METHYLCHOLANTHRENE (15%), Method: PREINCUBATION) was “active; positive”. The mutagenic call (Test System: AMES SALMONELLA TYPHIMURIUM, Strain/Indicator: TA100, Metabolic Activation: RAT, LIVER, S-9, AROCLOR 1254, Method: MICROSUSPENSION) was “active; positive”, the mutagenic call (Test System: AMES SALMONELLA TYPHIMURIUM, Strain/Indicator: TA100, Metabolic Activation: RAT, LIVER, S-9, AROCLOR 1254, Method: STANDARD PLATE) was “active; positive” and the mutagenic call (Test System: AMES SALMONELLA TYPHIMURIUM, Strain/Indicator: TA1535, Metabolic Activation: NONE, Method: STANDARD PLATE) was “active; positive”. For the same molecule, the mutagenic call (Test System: AMES SALMONELLA TYPHIMURIUM, Strain/Indicator: TA1535, Metabolic Activation: RAT, LIVER, S-9, AROCLOR 1254, Method: STANDARD PLATE) was “active; positive”, the mutagenic call (Test System: AMES SALMONELLA TYPHIMURIUM, Strain/Indicator: TA1537, Metabolic Activation: NONE, Method: STANDARD PLATE) was “active; positive” and the mutagenic call (Test System: AMES SALMONELLA TYPHIMURIUM, Strain/Indicator: TA1537, Metabolic Activation: RAT, LIVER, S-9, AROCLOR 1254, Method: STANDARD PLATE) was “active; positive”. The mutagenic call (Test System: AMES SALMONELLA TYPHIMURIUM, Strain/Indicator: TA1538, Metabolic Activation: NONE, Method: STANDARD PLATE) was “active; positive”, the mutagenic call (Test System: AMES SALMONELLA TYPHIMURIUM, Strain/Indicator: TA1538, Metabolic Activation: RAT, LIVER, S-9, AROCLOR 1254, Method: STANDARD PLATE) was “active; positive” and the mutagenic call (Test System: AMES SALMONELLA TYPHIMURIUM, Strain/Indicator: TA7001, Metabolic Activation: NONE, Method: PREINCUBATION) was “inactive; negative”. For the same molecule, the mutagenic call (Test System: AMES SALMONELLA TYPHIMURIUM, Strain/Indicator: TA7001, Metabolic Activation: RAT LIVER S-9, 3-METHYLCHOLANTHRENE (15%), Method: PREINCUBATION) was “inactive; negative”, the mutagenic call (Test System: AMES SALMONELLA TYPHIMURIUM, Strain/Indicator: TA7002, Metabolic Activation: NONE, Method: PREINCUBATION) was “active; positive” and the mutagenic call (Test System: AMES SALMONELLA TYPHIMURIUM, Strain/Indicator: TA7002, Metabolic Activation: RAT LIVER S-9, 3-METHYLCHOLANTHRENE, Method: PREINCUBATION) was “active; positive”. For the same molecule, the mutagenic call (Test System: AMES SALMONELLA TYPHIMURIUM, Strain/Indicator: TA7003, Metabolic Activation: NONE, Method: PREINCUBATION) was “inactive; negative”, the mutagenic call (Test System: AMES SALMONELLA TYPHIMURIUM, Strain/Indicator: TA7003, Metabolic Activation: RAT LIVER S-9, 3-METHYLCHOLANTHRENE, Method: PREINCUBATION) was “inactive; negative” and the mutagenic call (Test System: AMES SALMONELLA TYPHIMURIUM, Strain/Indicator: TA7004, Metabolic Activation: NONE, Method: PREINCUBATION) was “active; positive”. The mutagenic call (Test System: AMES SALMONELLA TYPHIMURIUM, Strain/Indicator: TA7004, Metabolic Activation: RAT LIVER S-9, 3-METHYLCHOLANTHRENE, Method: PREINCUBATION) was “active; positive”, the mutagenic call (Test System: AMES SALMONELLA TYPHIMURIUM, Strain/Indicator: TA7005, Metabolic Activation: NONE, Method: PREINCUBATION) was “active; positive” and the mutagenic call (Test System: AMES SALMONELLA TYPHIMURIUM, Strain/Indicator: TA7005, Metabolic Activation: RAT LIVER S-9, 3-METHYLCHOLANTHRENE, Method: PREINCUBATION) was “active; positive”. For the same molecule, the mutagenic call (Test System: AMES SALMONELLA TYPHIMURIUM, Strain/Indicator: TA7006, Metabolic Activation: NONE, Method: PREINCUBATION) was “active; positive” and the mutagenic call (Test System: AMES SALMONELLA TYPHIMURIUM, Strain/Indicator: TA7006, Metabolic Activation: RAT LIVER S-9, 3-METHYLCHOLANTHRENE, Method: PREINCUBATION) was “active; positive”.

With `Nc1cc([N+](=O)[O-])ccc1C(=O)O` the mutagenic call [1] was “active; positive”, the mutagenic call (Test System: AMES SALMONELLA TYPHIMURIUM, Strain/Indicator: TA98, Metabolic Activation: RAT, LIVER, S-9, AROCLOR, Method: PREINCUBATION) was “active; positive” and the mutagenic call (Test System: CHINESE HAMSTER OVARY, Strain/Indicator: CHO-K1-BH4 (HGPRT)/6-THIOGUANINE, Metabolic Activation: NONE) was “inactive; negative”. The mutagenic call (Test System: CHINESE HAMSTER OVARY, Strain/Indicator: CHO-K1-BH4 (HGPRT)/6-THIOGUANINE, Metabolic Activation: S-9) was “inactive; negative”.

From PubChem BioAssay AID1259407 (Chemical Carcinogenesis Research Information System (CCRIS), 2018)
